Measured values published in article PMC11339948 (Chemical Science, 2024).
Bridge positions count the residues as written; N and C are the ends. Square brackets hold non-standard residues; d marks the D form. Ends that are not written are not given here. pGlu = O=C1CC[C@@H](C(=O)O)N1

Molecular target: full-length TDP1 (Homo sapiens, UniProt Q9NUW8)
Assay: FRET-based TDP1 enzymatic activity inhibition assay
Assay type: biochemical

Sequence of full-length TDP1 (Q9NUW8 whole entry): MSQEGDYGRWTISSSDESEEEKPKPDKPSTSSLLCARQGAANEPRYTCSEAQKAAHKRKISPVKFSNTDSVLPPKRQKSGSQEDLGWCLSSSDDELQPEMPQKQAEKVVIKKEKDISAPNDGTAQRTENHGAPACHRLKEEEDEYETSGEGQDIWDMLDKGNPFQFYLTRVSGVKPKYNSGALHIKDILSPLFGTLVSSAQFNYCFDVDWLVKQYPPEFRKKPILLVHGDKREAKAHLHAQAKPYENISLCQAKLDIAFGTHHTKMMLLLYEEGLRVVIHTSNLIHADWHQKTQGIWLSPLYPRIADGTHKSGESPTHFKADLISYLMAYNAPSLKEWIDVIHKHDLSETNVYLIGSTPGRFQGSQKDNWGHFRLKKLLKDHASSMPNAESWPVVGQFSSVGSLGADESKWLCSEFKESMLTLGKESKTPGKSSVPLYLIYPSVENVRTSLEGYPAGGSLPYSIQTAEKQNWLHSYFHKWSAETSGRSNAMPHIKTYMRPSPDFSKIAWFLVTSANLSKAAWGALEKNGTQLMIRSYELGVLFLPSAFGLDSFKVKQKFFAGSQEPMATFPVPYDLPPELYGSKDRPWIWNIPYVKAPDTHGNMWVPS

| IC50 [nM] | Substance |
| --- | --- |
| 800 | [pGlu]EAFCYSDRFCQNYIGSIPDCCFGRGSYSFELQPPPWECYQC (disulfide 5-21, 11-39, 22-42) [Native recifin A, recifin A] |
| 580 | [pGlu]EAFCYSDRFCQNYIGSIPDCCFGRGSYSFELQPPPWECYQC (disulfide 5-21, 11-39, 22-42) [Synthetic recifin A, recifin A] |
